The target of assay [1] is human ENPP2 (Homo sapiens, UniProt Q13822). Put plainly: In vitro bis-pNPP assay (ATX inhibitory activity). Format: biochemical. As to conditions: for IC50: in vitro bis-pNPP assay, human ENPP2. The method, then:
We confirmed the ATX inhibitory activity of each compound using bis-pNPP assay. First, 50 μL of 60 mM Tris-HCl (pH 9.0) solution was poured into a 96-well plate and 10 μL of the test compound solution (10% dimethyl sulfoxide) was added. Subsequently, 20 μL of a 3.75 nM human ENPP2 solution (buffer: 50 mM Tris-HCl (pH 8.5), 5 mM CaCl2, 2.5 mM MgCl2, 0.002% Brij 35) and 20 μL of 25 mM bis-pNPP solution (buffer: 50 mM Tris-HCl (pH 9.0)) were added and mixed. Spectrophotometric measurement was carried out at 405 nm at intervals of 10 s while reacting under 37 °C for 10 min.

Assay [2] deals with T1, ATX (Homo sapiens, UniProt Q13822).
T1 construct: from tissue; host or cells: human plasma / serum
Put plainly: Ex vivo human plasma assay (LPC to LPA, LC-MS/MS). It counts as biochemical. As to conditions: 37 °C, 3 h. On the procedure:
First, 5 μL of each test compound solution (10 mM, 100% dimethyl sulfoxide) was diluted 100 times with 495 μL of methanol and then 3 μL of a diluted methanol solution (1% dimethyl sulfoxide) was added to a human or rat serum solution. Next, 12 μL of the test compound solution was mixed into 48 μL of 100% serum in order to make 5 concentrations, and each tube was placed in a constant temperature water bath at 37 °C for 15 min. Subsequently, 10 mg/mL 18: 1 LPC solution (50% ethanol) was diluted to 375 μg/mL with serum and 2 μL was dispensed into each tube to make 50 μL. Each tube was reacted in a constant temperature water bath at 37 °C for 3 h. Then, 100 μL of a 0.5 μM 17:0 LPA solution (Chloroform/Methanol/Water = 65/35/8) was added to the reaction tube. Reaction mixture was centrifuged at 14,000 rpm, at 4 °C for 10 min in a centrifuge. Thereafter, 100 μL of 50% methanol solution was first dissolved in a 96-well polypropylene plate (Agilent Technologies 5042-1385, Santa Clara, CA, USA), and then 50 μL of the supernatant was carefully transferred from the centrifuged tube to the plate. Then, it was covered with a well cap (Thermo 276011, Thermo Fisher Scientific Solutions LLC, Seoul, Korea) and analyzed by LC-MS/MS (Agilent 1260).

`NS(=O)(=O)Nc1ccc(C(=O)NC2CCN(C(=O)OCc3cc(Cl)cc(Cl)c3)CC2)cc1` [Compound 2, (3,5-dichlorophenyl)methyl 4-[4-(sulfamoylamino)benzamido]piperidine-1-carboxylate] had a half-maximal inhibitory concentration (IC50) in assay [1] of 44.5 nM. Moreover, in assay [1] (ratio of bis-pNPP IC50 values, compound 2 vs compound 1), the “potency relative to compound 1 in the bis-pNPP assay” value is “five-fold more potent”.
On to `NS(=O)(=O)Nc1ccc(NC(=O)c2ccc3c(c2)CN(C(=O)OCc2cc(Cl)cc(Cl)c2)C3)cc1` [Compound 3, (3,5-dichlorophenyl)methyl 5-{[4-(sulfamoylamino)phenyl]carbamoyl}-2,3-dihydro-1H-isoindole-2-carboxylate], for which the figures for the half-maximal inhibitory concentration (IC50) in assay [1] and in assay [2] were 3.86 nM and 827 nM, respectively.
Compound `NS(=O)(=O)Nc1ccc(C(=O)Nc2ccc3c(c2)CN(C(=O)OCc2cc(Cl)cc(Cl)c2)C3)cc1` [Compound 4, (3,5-dichlorophenyl)methyl 5-[4-(sulfamoylamino)benzamido]-2,3-dihydro-1H-isoindole-2-carboxylate] displayed an IC50 in assay [1] of 12.7 nM.

As a reminder, the IC50 is the concentration that gives 50% inhibition. Lower therefore signals greater potency in that assay.

The record behind these values is publication PMC6696049, “Pharmacophoric Site Identification and Inhibitor Design for Autotaxin” (Molecules, 2019).
